The source of these data is patent US12318370B2, “Processes for preparing solid state forms” (Varda Space Industries, Inc., priority 2022, dated 2025).

Each structure is given as a SMILES string.

Holding throughout (assay type): physicochemical
Data set [1] in a line: Temperature and humidity stress test, 40° C./75% RH, XRPD. As to conditions: for Change of solid form under stress, in words: 40° C. and 75% RH, XRPD at 30, 60 and 96 days; for Solid form after stress test / Time at which conversion to Form I was detected: 40° C./75% RH; for Solid form after stress test: XRPD. As to the method:
XRPD was measured at 30, 60, and 96 days (FIG. 15).

A short description of a further data set: Manual grinding, XRPD. As to conditions: mortar and pestle, five cycles of 2 minutes (10 minutes total).
A short description of data set [2]: Short-term thermal stability, Raman microscopy. Conditions: sequentially 15 minutes at 50° C., 70° C. and 90° C., Raman after each. On the procedure: Short-term thermal stability experiments were conducted by holding the material from example 1f sequentially for 15 minutes at 50° C., 15 minutes at 70° C., and 15 minutes at 90° C. The sample was analyzed by Raman microscopy after each temperature exposure. […] FIG. 10 compares the short-term thermal stability results to the reference spectra from FIG. 9.

The nature of data set [3]: Dynamic vapor sorption (DVS). As to conditions: 5% to 95% RH. The text has this: No hysteresis was observed. DVS isotherms were characterized using a VTI SGA-100 Vapor Sorption Analyzer. The sample was not dried prior to analysis. Sorption and desorption isotherms were collected over a range from 5% to 95% RH at 10% RH increments under a dry air purge. The equilibrium criterion used for analysis was less than 0.0100%^0/weight change in five minutes with a maximum equilibration time of three hours and a 2-minute data logging interval. Data were not corrected for the initial moisture content of the sample.

The nature of data set [4]: Longer-term stability at ambient conditions, Raman. Conditions: 5 weeks and up to 23 weeks. As to the method: Additionally, a longer-term stability study was performed.
Data set [5] is described as follows: Compression at 700 lbs, XRPD. As to conditions: XRPD before and after, listed as ritonavir Form III.

For the molecule `CC(C)c1nc(CN(C)C(=O)N[C@H](C(=O)N[C@@H](Cc2ccccc2)C[C@H](O)[C@H](Cc2ccccc2)NC(=O)OCc2cncs2)C(C)C)cs1` (single isomer, unassigned) [Amorphous, 10-hydroxy-2-methyl-5-(1-methylethyl)-1-[2-(1-methylethyl)-4-thiazolyl]-3,6-dioxo-8,11-bis(phenylmethyl)-2,4,7,12-tetraazatridecan-13-oic acid, 5-thiazolylmethyl ester, [SS-(5R*,8R*,10R*,1R*)]], the “Change of solid form under stress, in words” value in data set [1] is listed as “No change”. The “Solid form after stress test” value in data set [1] (30 days), in data set [1] (60 days) and in data set [1] (96 days) was “Form I” each time. In addition, the “Time at which conversion to Form I was detected” value in data set [1] (listed as amorphous ritonavir) was not above 30 days. For the same molecule, the “Solid form after manual grinding” value in the data set “Manual grinding, XRPD” (listed as Amorphous material) was “remained unchanged”.
Turning to `CC(C)c1nc(CN(C)C(=O)N[C@H](C(=O)N[C@@H](Cc2ccccc2)C[C@H](O)[C@H](Cc2ccccc2)NC(=O)OCc2cncs2)C(C)C)cs1` (single isomer, unassigned) [Form I, 10-hydroxy-2-methyl-5-(1-methylethyl)-1-[2-(1-methylethyl)-4-thiazolyl]-3,6-dioxo-8,11-bis(phenylmethyl)-2,4,7,12-tetraazatridecan-13-oic acid, 5-thiazolylmethyl ester, [SS-(5R*,8R*,10R*,1R*)]], in data set [1], the “Change of solid form under stress, in words” value is “No change”. Also, the “Solid form after stress test” value in data set [1] (30 days), in data set [1] (60 days) and in data set [1] (96 days) was “Form I” each time. The “Solid form after manual grinding” value in the data set “Manual grinding, XRPD” is “Mixture of amorphous and Form I”.
Take `CC(C)c1nc(CN(C)C(=O)N[C@H](C(=O)N[C@@H](Cc2ccccc2)C[C@H](O)[C@H](Cc2ccccc2)NC(=O)OCc2cncs2)C(C)C)cs1` (single isomer, unassigned) [Form II, 10-hydroxy-2-methyl-5-(1-methylethyl)-1-[2-(1-methylethyl)-4-thiazolyl]-3,6-dioxo-8,11-bis(phenylmethyl)-2,4,7,12-tetraazatridecan-13-oic acid, 5-thiazolylmethyl ester, [SS-(5R*,8R*,10R*,1R*)]]: the “Solid form after manual grinding” value in the data set “Manual grinding, XRPD” was “mixture of amorphous and Form II”.
For the molecule `CC(C)c1nc(CN(C)C(=O)N[C@H](C(=O)N[C@@H](Cc2ccccc2)C[C@H](O)[C@H](Cc2ccccc2)NC(=O)OCc2cncs2)C(C)C)cs1` (single isomer, unassigned) [Form III, 10-hydroxy-2-methyl-5-(1-methylethyl)-1-[2-(1-methylethyl)-4-thiazolyl]-3,6-dioxo-8,11-bis(phenylmethyl)-2,4,7,12-tetraazatridecan-13-oic acid, 5-thiazolylmethyl ester, [SS-(5R*,8R*,10R*,1R*)]], the “Solid form after short-term thermal exposure” value in data set [2] is reported as “remained as Form III ritonavir”. Besides, the Hygroscopicity entry in data set [3] is recorded as “not hygroscopic”. The “Solid form after storage at ambient conditions” value in data set [4] is given as “remained unchanged”. For the same molecule, the “Solid form after stress test” value is given as “Form III” in data set [1] (30 days); “Form III + Form I” in data set [1] (60 days); “Form III + Form I” in data set [1] (96 days); “presence of Form I peaks” in data set [1] (96 days, listed as ritonavir Form III). In addition, the “Time at which conversion to Form I was detected” value in data set [1] (listed as Form III ritonavir) and in data set [1] (listed as ritonavir Form III) was 60 days in each case. Besides, the “Solid form after manual grinding” value in “Manual grinding, XRPD” (listed as ritonavir Form III) is on record as “amorphous with traces of Form III”. The “Change of solid form after compression” value in data set [5] is “no change”.
